Reference: patent US20080096894A1, “Anti-Bacterial Compounds” (ASTON UNIVERSITY, priority 2005, published 2008)
Counter-ions that a name gives are not always drawn. Like-named read-outs stand apart in the source and are kept apart here.

Columns and labels:
Moraxella catarrhalis = experiment: MIC, doubling dilution in 96-well microtitre plate; type: cell-based
Experimental: (§1) The compound was tested as follows. […] The wells were inoculated with organism ([…] of medium containing 10^6 cfu/mL) and the plates were incubated at 37° C. overnight. Where growth of organism occurred this was observed as a small button when viewed from underneath the plate. The MIC was determined as the lowest concentration inhibiting growth.

Bacillus cereus = experiment: MIC, doubling dilution in 96-well microtitre plate; type: cell-based
Experimental: as §1

Bacillus megarerium = experiment: MIC, doubling dilution in 96-well microtitre plate; type: cell-based
Experimental: as §1

Bacillus subtilis = experiment: MIC, doubling dilution in 96-well microtitre plate; type: cell-based
Experimental: as §1

Micrococcus roseus = experiment: MIC, doubling dilution in 96-well microtitre plate; type: cell-based
Experimental: as §1

Micrococcus luteus = experiment: MIC, doubling dilution in 96-well microtitre plate; type: cell-based
Experimental: as §1

Enterococcus faecium = experiment: MIC, doubling dilution in 96-well microtitre plate; type: cell-based; conditions: Enterococcus faecium ATCC 10541
Experimental: as §1

E. faecium = experiment: MIC, agar dilution, multipoint inoculator; type: cell-based, Enterococcus faecium; conditions: Enterococcus faecium
In short: (§2)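 Compounds were serially incorporated into Mueller Hinton agar, then each strain was spotted by multipoint inoculator at 10^4 colony forming units per spot. MIC was determined from the dilution series.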

S. epidemisis = experiment: MIC, agar dilution, multipoint inoculator; type: cell-based, Staphylococcus epidermidis; conditions: Staphylococcus epidermidis
In short: as §2

P. auriginosa = experiment: MIC, agar dilution, multipoint inoculator; type: cell-based, Pseudomonas aeruginosa; conditions: Pseudomonas aeruginosa, NCTC6749, 18 h
In short: as §2

S. aureus = experiment: MIC, agar dilution, multipoint inoculator; type: cell-based, Staphylococcus aureus; conditions: Staphylococcus aureus
In short: as §2

K. pneumoniae = experiment: MIC, agar dilution, multipoint inoculator; type: cell-based, Klebsiella pneumoniae; conditions: Klebsiella pneumoniae, 18 h
In short: as §2

S. marcesens = experiment: MIC, agar dilution, multipoint inoculator; type: cell-based, Serratia marcescens; conditions: Serratia marcescens, 18 h
In short: as §2

E. coli = experiment: MIC, agar dilution, multipoint inoculator; type: cell-based, Escherichia coli
In short: as §2

MRSA = experiment: MIC, agar dilution, multipoint inoculator; type: cell-based, methicillin-resistant Staphylococcus aureus
In short: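 Agar dilution MIC on Mueller Hinton agar, multipoint inoculator delivering 10^4 colony forming units per spot. MRSA values are ranges across ten clinical MRSA strains; S. aureus NCTC 6571 as reference strain.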

S. aboni = experiment: MIC, agar dilution, multipoint inoculator; type: cell-based; conditions: S. aboni NCTC 6017; upper value of MIC reading
In short: as §2

B. bronchiseptica = experiment: MIC, agar dilution, multipoint inoculator; type: cell-based; conditions: Bordetella bronchiseptica, NCTC8344, 18 h
In short: as §2

S. haemolyticus = experiment: MIC, agar dilution, multipoint inoculator; type: cell-based; conditions: Staphylococcus haemolyticus, 18 h
In short: as §2

S. maltophilia = experiment: MIC, agar dilution, multipoint inoculator; type: cell-based; conditions: Stenotrophomonas maltophilia, NCTC10257, 18 h
In short: as §2

E. faecalis = experiment: MIC, agar dilution, multipoint inoculator; type: cell-based; conditions: Enterococcus faecalis, upper value of MIC reading
In short: as §2

E. cloacae = experiment: MIC, agar dilution, multipoint inoculator; type: cell-based, Enterobacter cloacae; conditions: Enterobacter cloacae, NCTC11582, 18 h
In short: as §2

[1] = system: vancomycin resistant enterococci; experiment: MIC, agar dilution, multipoint inoculator; type: cell-based
Experimental: This activity was measured using a multipoint inoculator method as follows. The MIC for each compound was measured using an agar dilution method (Onda, H., et al., Int. J. Antimicrob. Agents. 18, 263 (2001)) (Mueller Hinton agar) by means of a multipoint inoculator delivering 10^4 colony forming units per spot.
It will be noted that compound 4PYcq was active against all strains of MRSA as well as all other Gram positive bacteria. For this reason it was further tested against some vancomycin resistant enterococci, using the multipoint inoculator method described above. It can be seen from Table 5 that the high level activity was retained.

[2] = system: Streptococcus bovis NCTC 11436; experiment: MIC, doubling dilution in 96-well microtitre plate; type: cell-based
Experimental: as §1

Measured: MIC

NC(=NN=Cc1cccc2ccccc12)c1cc[n+]([O-])cc1 [Compound 4PYOal]
16 to 32 µg/mL: Moraxella catarrhalis | Bacillus megarerium | Bacillus subtilis | Micrococcus roseus | Micrococcus luteus | Enterococcus faecium
8 to 16 µg/mL: Bacillus cereus

CC(C)(C)c1ccc(O)c(C=NN=C(N)c2cc[n+]([O-])cc2)c1 [Compound 4PYOfe]
8 to 16 µg/mL: Moraxella catarrhalis | Micrococcus luteus

NC(=NN=Cc1ccccc1Sc1ccc(Cl)cc1)c1cc[n+]([O-])cc1 [Compound 4PYOeh]
32 to 64 µg/mL: Micrococcus roseus
64 to 128 µg/mL: Moraxella catarrhalis

CN[C@H](CC(C)C)C(=O)N[C@H]1C(=O)N[C@@H](CC(N)=O)C(=O)N[C@H]2C(=O)N[C@H]3C(=O)N[C@H](C(=O)N[C@H](C(=O)O)c4cc(O)cc(O)c4-c4cc3ccc4O)[C@H](O)c3ccc(c(Cl)c3)Oc3cc2cc(c3O[C@@H]2O[C@H](CO)[C@@H](O)[C@H](O)[C@H]2O[C@H]2C[C@](C)(N)[C@H](O)[C@H](C)O2)Oc2ccc(cc2Cl)[C@H]1O [Vanc., Vancomycin hydrochloride, reference compound]
2 µg/mL: E. faecalis; 18 h, E. faecalis Isolate 5
0.05 µg/mL: S. aureus; NCTC6571, 18 h | S. aboni
0.12: MRSA; MRSA Isolate 1, upper value of MIC reading, in µg/mL | MRSA; MRSA Isolate 2, upper value of MIC reading, in µg/mL | MRSA; MRSA Isolate 3, upper value of MIC reading, in µg/mL | MRSA; MRSA Isolate 4, upper value of MIC reading, in µg/mL | MRSA; MRSA Isolate 5, upper value of MIC reading, in µg/mL | MRSA; MRSA Isolate 6, upper value of MIC reading, in µg/mL | MRSA; MRSA Isolate 7, upper value of MIC reading, in µg/mL | MRSA; MRSA Isolate 8, upper value of MIC reading, in µg/mL | MRSA; MRSA Isolate 9, upper value of MIC reading, in µg/mL
8 µg/mL: S. epidemisis; 18 h | S. epidemisis; NCTC11047, 18 h | S. haemolyticus
4 to 8 µg/mL: [1]; Culture 3001562 | [1]; Culture 3002043 | [1]; Culture 3002066 | [1]; Culture 3005426
> 16 µg/mL: P. auriginosa | K. pneumoniae | S. marcesens | E. coli; E. coli W3110R+, upper value of MIC reading | E. coli; Escherichia coli, 18 h | B. bronchiseptica | S. maltophilia | E. cloacae | [1]; Culture 3005323 | [1]; Culture 3102095 | [1]; Culture 30053530
0.25 µg/mL: S. aureus; 18 h | E. faecalis; 18 h, E. faecalis Isolate 1 | E. faecalis; 18 h, E. faecalis Isolate 2 | E. faecalis; NCTC5957, 18 h, E. faecalis NCTC 5957
0.12 µg/mL: E. faecium; 18 h | E. faecium; NCTC7171, 18 h | S. aureus; NCTC10788, 18 h | MRSA; Staphylococcus aureus, 18 h | E. faecalis; 18 h, E. faecalis EBH1 | E. faecalis; 18 h, E. faecalis Isolate 3
16 µg/mL: E. faecalis; 18 h, E. faecalis Isolate 4

CC(C)(C)c1ccc(C=NN=C(N)c2cc[n+]([O-])cc2)cc1 [Compound 4PYOfb]
16 to 32 µg/mL: Bacillus cereus | Bacillus megarerium | Enterococcus faecium
32 to 64 µg/mL: Moraxella catarrhalis
8 to 16 µg/mL: Bacillus subtilis | Micrococcus roseus

CC(C)(C)c1cccc(C=NN=C(N)c2cc[n+]([O-])cc2)c1O [Compound 4PYOfg]
4 to 8 µg/mL: Moraxella catarrhalis
8 to 16 µg/mL: Micrococcus luteus
32 to 64 µg/mL: [2]

Cc1onc(-c2c(F)cccc2Cl)c1C(=O)N[C@@H]1C(=O)N2[C@@H]1SC(C)(C)[C@@H]2C(=O)O [Fluclox., Flucloxacillin, reference compound]
0.25 µg/mL: MRSA; Staphylococcus aureus, 18 h, MRSA Isolate 6, upper value of MIC reading, read-out: MIC | MRSA; Staphylococcus aureus, 18 h, MRSA Isolate 7, upper value of MIC reading, read-out: MIC | MRSA; Staphylococcus aureus, 18 h, MRSA Isolate 10, upper value of MIC reading, read-out: MIC
1 µg/mL: E. faecium; 18 h, E. faecium ACTCC 10541, upper value of MIC reading, read-out: MIC | E. faecium; NCTC7171, 18 h, E. faecium NCTC 7171, upper value of MIC reading, read-out: MIC | E. faecalis; 18 h, E. faecalis Isolate 1, read-out: MIC | E. faecalis; 18 h, E. faecalis Isolate 4, read-out: MIC | E. faecalis; 18 h, E. faecalis Isolate 5, read-out: MIC | E. faecalis; NCTC5957, 18 h, E. faecalis NCTC 5957, read-out: MIC
16 µg/mL: MRSA; Staphylococcus aureus, 18 h, MRSA Isolate 4, upper value of MIC reading, read-out: MIC | S. maltophilia; S. maltophilia NCTC 10257, upper value of MIC reading, read-out: MIC
0.05 µg/mL: S. epidemisis; NCTC11047, 18 h, S. epidemisis NCTC 11047, upper value of MIC reading, read-out: MIC | S. aureus; 18 h, S. aureus Cowan 1, upper value of MIC reading, read-out: MIC | S. aureus; NCTC6571, 18 h, S. aureus NCTC 6571, upper value of MIC reading, read-out: MIC | S. aureus; NCTC10788, 18 h, S. aureus NCTC 10788, upper value of MIC reading, read-out: MIC | MRSA; Staphylococcus aureus, 18 h, MRSA Isolate 1, upper value of MIC reading, read-out: MIC | MRSA; Staphylococcus aureus, 18 h, MRSA Isolate 5, upper value of MIC reading, read-out: MIC | S. aboni
0.5 µg/mL: S. haemolyticus; S. haemolyticus Isolate 1, upper value of MIC reading, read-out: MIC | E. faecalis; 18 h, E. faecalis EBH1, read-out: MIC | E. faecalis; 18 h, E. faecalis Isolate 2, read-out: MIC
8 µg/mL: P. auriginosa; P. auriginosa NCTC 6749, upper value of MIC reading, read-out: MIC | MRSA; Staphylococcus aureus, 18 h, MRSA Isolate 2, upper value of MIC reading, read-out: MIC | MRSA; Staphylococcus aureus, 18 h, MRSA Isolate 3, upper value of MIC reading, read-out: MIC | MRSA; Staphylococcus aureus, 18 h, MRSA Isolate 8, upper value of MIC reading, read-out: MIC | MRSA; Staphylococcus aureus, 18 h, MRSA Isolate 9, upper value of MIC reading, read-out: MIC
> 16 µg/mL: S. epidemisis; 18 h, S. epidemisis Isolate 1, upper value of MIC reading, read-out: MIC | K. pneumoniae; K. pneumoniae 327, upper value of MIC reading, read-out: MIC | S. marcesens; S. marcesens 4444, upper value of MIC reading, read-out: MIC | E. coli; Escherichia coli, 18 h, E. coli W3110R+, upper value of MIC reading | E. coli; Escherichia coli, 18 h, E. coli W3110R−, upper value of MIC reading | B. bronchiseptica; B. bronchiseptica NCTC 8344, upper value of MIC reading, read-out: MIC | E. cloacae; E. cloacae NCTC 11582, upper value of MIC reading, read-out: MIC

CC(=O)Nc1ccc(C=NN=C(N)c2cc[n+]([O-])cc2)cc1 [Compound 4PYOfa]
4 to 8 µg/mL: Bacillus subtilis
16 to 32 µg/mL: Bacillus megarerium | Micrococcus roseus | Enterococcus faecium
8 to 16 µg/mL: Bacillus cereus
